# Patent publication EP1038533A1, “MEDICINAL COMPOSITIONS FOR TREATING IMMUNODEFICIENCY DISEASES” (Nippon Kayaku Kabushiki Kaisha, priority 1997, dated 1999)
# Where two headings read alike, the source gives them in different places.
# Columns and labels:
# [1] = test system: HIV (human immunodeficiency virus); format: in vivo; conditions: patient
# Procedure: (§1) The therapeutic effect of 15-deoxyspergualin for immunodeficiency was clinically investigated by administering the compound to HIV-infected patients. The details are shown below.
# To a patient who was diagnosed as a HIV positive 1 year and 10 months ago, the 15-deoxyspergualin injection of Example 1 later described was intravenously administered for consecutive 15 days in a dose of 0.15 mg/kg body weight/day. This cycle was made one course. Then, no drug period was set for 6 weeks followed by repetition with 2 courses with the same interval between the second course and the third couse, as well.
# The CD4^+/CD8^+ level was measured immediately before and after each course and, 3 months and 2 years after the completion of Course 3, namely, 8 measurements in total.
# [2] = test system: HIV (human immunodeficiency virus); test: Test Example 2: clinical administration of 15-deoxyspergualin injection to five HIV positive carriers; format: in vivo; conditions: 0.15 mg/kg body weight/day i.v. 14 days per course; for fatigue (malaise) of the worst kind: 3 courses
# Procedure: as §1
# To five (5) carriers diagnosed as HIV positive, the 15-deoxyspergualin injection was intravenously administered for consecutive 14 days in a dose of 0.15 mg/kg body weight/day. This cycle was made one course. Then, no drug period was set for 6 weeks followed by repetition with 2 courses with the same interval between the second course and the third course, as well. The CD4^+ cell count, CD4^+ /CD8^+ level and virus load, etc. were measured immediately before and after each course and 6 weeks after the completion of Course 3, respectively.
# [3] = throughout the entire period of the treatment
# [4] = Case 1, 6 Weeks after completion of Course 3
# [5] = Case 1, Immediately after Course 1
# [6] = Case 1, Immediately after Course 2
# [7] = Case 1, Immediately after Course 3
# [8] = Case 1, Immediately before Course 1 (before treatment)
# [9] = Case 1, Immediately before Course 2
# [10] = Case 1, Immediately before Course 3
# [11] = Case 2, 6 Weeks after completion of Course 3
# [12] = Case 2, Immediately after Course 1
# [13] = Case 2, Immediately after Course 2
# [14] = Case 2, Immediately after Course 3
# [15] = Case 2, Immediately before Course 1 (before treatment)
# [16] = Case 2, Immediately before Course 2
# [17] = Case 2, Immediately before Course 3
# [18] = Case 3, 6 Weeks after completion of Course 3
# [19] = Case 3, Immediately after Course 1
# [20] = Case 3, Immediately after Course 2
# [21] = Case 3, Immediately after Course 3
# [22] = Case 3, Immediately before Course 1 (before treatment)
# [23] = Case 3, Immediately before Course 2
# [24] = Case 3, Immediately before Course 3
# [25] = Case 4, 6 Weeks after completion of Course 3
# [26] = Case 4, Immediately after Course 1
# [27] = Case 4, Immediately after Course 2
# [28] = Case 4, Immediately after Course 3
# [29] = Case 4, Immediately before Course 1 (before treatment)
# [30] = Case 4, Immediately before Course 2
# [31] = Case 4, Immediately before Course 3
# [32] = Case 5, 6 Weeks after completion of Course 3
# [33] = Case 5, Immediately after Course 1
# [34] = Case 5, Immediately after Course 2
# [35] = Case 5, Immediately after Course 3
# [36] = Case 5, Immediately before Course 1 (before treatment)
# [37] = Case 5, Immediately before Course 2
# [38] = Case 5, Immediately before Course 3
structure (smiles),measurement,setting,value
N=C(N)NCCCCCCC(=O)NC(O)C(=O)NCCCCNCCCN (centres unmarked) [15-deoxyspergualin],CD4^+/CD8^+ level,"[1]; 0.15 mg/kg body weight/day i.v. 15 days per course, 2 Years after completion of Course 3",0.90
same,CD4^+/CD8^+ level,"[1]; 0.15 mg/kg body weight/day i.v. 15 days per course, 3 Months after completion of Course 3",0.93
same,CD4^+/CD8^+ level,"[1]; 0.15 mg/kg body weight/day i.v. 15 days per course, Immediately after Course 1",0.72
same,CD4^+/CD8^+ level,"[1]; 0.15 mg/kg body weight/day i.v. 15 days per course, Immediately after Course 2",0.75
same,CD4^+/CD8^+ level,"[1]; 0.15 mg/kg body weight/day i.v. 15 days per course, Immediately after Course 3",0.84
same,CD4^+/CD8^+ level,"[1]; 0.15 mg/kg body weight/day i.v. 15 days per course, Immediately before Course 1 (before treatment)",0.68
same,CD4^+/CD8^+ level,"[1]; 0.15 mg/kg body weight/day i.v. 15 days per course, Immediately before Course 2",0.78
same,CD4^+/CD8^+ level,"[1]; 0.15 mg/kg body weight/day i.v. 15 days per course, Immediately before Course 3",0.87
same,decrease of CD4^+/CD8^+ level immediately after Courses 2 and 3 versus immediately before the courses,"[1]; 0.15 mg/kg body weight/day i.v. 15 days per course, attributed to weak bone marrow suppression",0.03
same,complaint of fatigue,"[1]; 0.15 mg/kg body weight/day i.v. 15 days, after Course 1 was finished",disappeared completely
same,leucocyte count,[1]; [3],approximately 6200
same,other side effect,[1]; [3],no other side effect was observed at all
same,CD4^+ T cell counts,[2]; [4],760 µL⁻¹
same,CD4^+/CD8^+ levels,[2]; [4],0.93
same,Virus loads,[2]; [4],6000 particles/ml
same,CD4^+ T cell counts,[2]; [5],680 µL⁻¹
same,CD4^+/CD8^+ levels,[2]; [5],0.82
same,Virus loads,[2]; [5],8600 particles/ml
same,CD4^+ T cell counts,[2]; [6],740 µL⁻¹
same,CD4^+/CD8^+ levels,[2]; [6],0.86
same,Virus loads,[2]; [6],8000 particles/ml
same,CD4^+ T cell counts,[2]; [7],750 µL⁻¹
same,CD4^+/CD8^+ levels,[2]; [7],0.93
same,Virus loads,[2]; [7],7000 particles/ml
same,CD4^+ T cell counts,[2]; [8],680 µL⁻¹
same,CD4^+/CD8^+ levels,[2]; [8],0.78
same,Virus loads,[2]; [8],12000 particles/ml
same,CD4^+ T cell counts,[2]; [9],730 µL⁻¹
same,CD4^+/CD8^+ levels,[2]; [9],0.80
same,Virus loads,[2]; [9],9000 particles/ml
same,CD4^+ T cell counts,[2]; [10],720 µL⁻¹
same,CD4^+/CD8^+ levels,[2]; [10],0.85
same,Virus loads,[2]; [10],8200 particles/ml
same,CD4^+ T cell counts,[2]; [11],740 µL⁻¹
same,CD4^+/CD8^+ levels,[2]; [11],0.78
same,Virus loads,[2]; [11],13000 particles/ml
same,CD4^+ T cell counts,[2]; [12],740 µL⁻¹
same,CD4^+/CD8^+ levels,[2]; [12],0.72
same,Virus loads,[2]; [12],13000 particles/ml
same,CD4^+ T cell counts,[2]; [13],730 µL⁻¹
same,CD4^+/CD8^+ levels,[2]; [13],0.77
same,Virus loads,[2]; [13],14000 particles/ml
same,CD4^+ T cell counts,[2]; [14],750 µL⁻¹
same,CD4^+/CD8^+ levels,[2]; [14],0.79
same,Virus loads,[2]; [14],14000 particles/ml
same,CD4^+ T cell counts,[2]; [15],750 µL⁻¹
same,CD4^+/CD8^+ levels,[2]; [15],0.76
same,Virus loads,[2]; [15],15000 particles/ml
same,CD4^+ T cell counts,[2]; [16],750 µL⁻¹
same,CD4^+/CD8^+ levels,[2]; [16],0.78
same,Virus loads,[2]; [16],13000 particles/ml
same,CD4^+ T cell counts,[2]; [17],760 µL⁻¹
same,CD4^+/CD8^+ levels,[2]; [17],0.80
same,Virus loads,[2]; [17],15000 particles/ml
same,CD4^+ T cell counts,[2]; [18],800 µL⁻¹
same,CD4^+/CD8^+ levels,[2]; [18],0.90
same,Virus loads,[2]; [18],6000 particles/ml
same,CD4^+ T cell counts,[2]; [19],570 µL⁻¹
same,CD4^+/CD8^+ levels,[2]; [19],0.73
same,Virus loads,[2]; [19],11000 particles/ml
same,CD4^+ T cell counts,[2]; [20],600 µL⁻¹
same,CD4^+/CD8^+ levels,[2]; [20],0.75
same,Virus loads,[2]; [20],7000 particles/ml
same,CD4^+ T cell counts,[2]; [21],720 µL⁻¹
same,CD4^+/CD8^+ levels,[2]; [21],0.90
same,Virus loads,[2]; [21],6000 particles/ml
same,CD4^+ T cell counts,[2]; [22],550 µL⁻¹
same,CD4^+/CD8^+ levels,[2]; [22],0.69
same,Virus loads,[2]; [22],17000 particles/ml
same,CD4^+ T cell counts,[2]; [23],590 µL⁻¹
same,CD4^+/CD8^+ levels,[2]; [23],0.72
same,Virus loads,[2]; [23],11000 particles/ml
same,CD4^+ T cell counts,[2]; [24],650 µL⁻¹
same,CD4^+/CD8^+ levels,[2]; [24],0.84
same,Virus loads,[2]; [24],8000 particles/ml
same,CD4^+ cell counts,[2]; [25],910 µL⁻¹
same,CD4^+/CD8^+ levels,[2]; [25],0.92
same,Virus loads,[2]; [25],13000 particles/ml
same,CD4^+ cell counts,[2]; [26],710 µL⁻¹
same,CD4^+/CD8^+ levels,[2]; [26],0.75
same,Virus loads,[2]; [26],20000 particles/ml
same,CD4^+ cell counts,[2]; [27],760 µL⁻¹
same,CD4^+/CD8^+ levels,[2]; [27],0.85
same,Virus loads,[2]; [27],18000 particles/ml
same,CD4^+ cell counts,[2]; [28],850 µL⁻¹
same,CD4^+/CD8^+ levels,[2]; [28],0.94
same,Virus loads,[2]; [28],15000 particles/ml
same,CD4^+ cell counts,[2]; [29],640 µL⁻¹
same,CD4^+/CD8^+ levels,[2]; [29],0.73
same,Virus loads,[2]; [29],25000 particles/ml
same,CD4^+ cell counts,[2]; [30],770 µL⁻¹
same,CD4^+/CD8^+ levels,[2]; [30],0.83
same,Virus loads,[2]; [30],20000 particles/ml
same,CD4^+ cell counts,[2]; [31],840 µL⁻¹
same,CD4^+/CD8^+ levels,[2]; [31],0.90
same,Virus loads,[2]; [31],17000 particles/ml
same,CD4^+ cell counts,[2]; [32],900 µL⁻¹
same,CD4^+/CD8^+ levels,[2]; [32],0.90
same,Virus loads,[2]; [32],6000 particles/ml
same,CD4^+ cell counts,[2]; [33],750 µL⁻¹
same,CD4^+/CD8^+ levels,[2]; [33],0.80
same,Virus loads,[2]; [33],6000 particles/ml
same,CD4^+ cell counts,[2]; [34],820 µL⁻¹
same,CD4^+/CD8^+ levels,[2]; [34],0.83
same,Virus loads,[2]; [34],6500 particles/ml
same,CD4^+ cell counts,[2]; [35],890 µL⁻¹
same,CD4^+/CD8^+ levels,[2]; [35],0.87
same,Virus loads,[2]; [35],6000 particles/ml
same,CD4^+ cell counts,[2]; [36],780 µL⁻¹
same,CD4^+/CD8^+ levels,[2]; [36],0.79
same,Virus loads,[2]; [36],6000 particles/ml
same,CD4^+ cell counts,[2]; [37],810 µL⁻¹
same,CD4^+/CD8^+ levels,[2]; [37],0.81
same,Virus loads,[2]; [37],7000 particles/ml
same,CD4^+ cell counts,[2]; [38],880 µL⁻¹
same,CD4^+/CD8^+ levels,[2]; [38],0.85
same,Virus loads,[2]; [38],6500 particles/ml
same,fatigue (malaise) of the worst kind,"[2]; Cases 1, 3 and 4",improved
same,fatigue (malaise) of the worst kind,[2]; Cases 2 and 5,no change
